Results taken from patent publication US6511970B1, “Prevention of ovarian cancer by administration of products that induce transforming growth factor-beta and/or apoptosis in the ovarian epithelium” (New Life Pharmaceuticals Inc., priority 1996, dated 2003).

Tests used:
[1] = test system: TGF β3; test: Anti-TGF β3 immunohistochemical staining of M-100 cells; format: cell-based, human; details: 100 nM, 72 hours
Procedure: An immortalized cell line, M-100, derived from a normal human ovarian epithelial cell culture established in our laboratory was plated in 100 mm plates at a concentration of 1 million cells per plate, in the presence of either 1,25 (OH)2 D3 or the Vitamin D analogue […] at doses of each (100 nM) or control medium, and allowed to incubate for 72 hours. After 72 hours, cells were scraped from each of the plates, fixed on glass slides, and stained immunohistochemically with anti-TGF β3 antibody.

[2] = serum; cited from earlier work
[3] = test system: human ovarian epithelial cells; test: Cell death ELISA in normal human ovarian epithelial cell culture; format: cell-based; details: 100 nM, 96 hours, p=0.01
Procedure: Example 10 addresses the effect of administration of Vitamin D on human ovarian epithelial cells. According to this example, a cell culture derived from normal ovarian epithelial cells was plated in 24 well plates at a concentration of 100,000 cells per well. After 24 hours, the wells were treated with 1,25-dihydroxyvitamin D3 at a 100 nM concentration or control medium, and allowed to incubate for 96 hours. All experiments were carried out in triplicate. After 96 hours, cell lysates were extracted from each of the wells, and the cytoplasmic fraction was normalized for cell number and analyzed for DNA-histone complexes indicative of apoptosis using a cell death ELISA (Boehringer Mannheim). A significant (300%) increase in apoptosis (p=0.01) was measured in the human ovarian epithelial cells treated with Vitamin D as compared with the controls.

[4] = test system: ovarian and oviductal tumors; test: Two-year chemoprevention trial in the chicken; format: in vivo; details: two-year mark; feed restriction (anovulatory); preliminary results
Procedure: A two-year prevention trial was performed in the chicken, designed to test the hypothesis that progestins confer prevention against ovarian cancer. Two thousand two year-old birds were randomized into several groups, including untreated controls, and groups receiving the progestins provera or levonorgestrel. The trial has just completed, and tumors accrued during the trial are currently being studied.

[5] = test system: TGF beta-3; test: TGF beta-3 immunohistochemical staining in monkey ovarian oocytes; format: in vivo, cynomolgus monkeys; details: Triphasil-pattern doses in diet
From the text: (§1) Young female adult cynomolgus monkeys were fed a diet for three years that contained either no hormones, the oral combination contraceptive “[…],” the estrogenic component of “[…] estradiol) alone, or the progestin component of “[…]” (levonorgestrel) alone, each administered in the same pattern that occurs in a “[…]” regimen. Doses were scaled on the basis of caloric intake, which is the accepted way to achieve human-equivalent doses. […] This cyclic regimen was repeated every 28 days continuously for 2 years. In a similar experiment, the effect of hormone treatment on expression of TGF-β3 was examined in the ovaries of primates from the trial described above. This study uses monkeys that were randomized in the study above of apoptosis in the ovarian epithelium. […] Ovarian sections from each of the monkeys were stained immunohistochemically for expression of TGF beta-3, using an anti-TGF-beta-3 monoclonal antibody. […] Two blinded observers then quantitated degree of expression of TGF-β3 by grading the intensity of staining on a scale of 1-4+ in several ovarian compartments: 1) epithelium, 2) oocytes, 3) endothelial cells, 4) granulosa cells. The staining was characterized as negative (0-2+) versus positive (3-4+). The following tables show the distribution of negative (0-2) and positive (3-4) staining among the randomized treatment groups for each separate ovarian compartment (i.e.: epithelial, oocyte cytoplasm, granulosa, and endothelial).

[6] = test system: TGF beta-3; test: TGF beta-3 immunohistochemical staining in monkey ovarian endothelial cells; format: in vivo, cynomolgus monkeys; details: Triphasil-pattern doses in diet
From the text: as §1

[7] = test system: TGF beta-3; test: TGF beta-3 immunohistochemical staining in monkey ovarian granulosa cells; format: in vivo, cynomolgus monkeys; details: Triphasil-pattern doses in diet
From the text: as §1

[8] = test system: ovarian epithelial cells; test: Apoptosis in monkey ovarian surface epithelium in vivo (Apoptag-plus staining); set-up: species or system cynomolgus monkeys; details: in diet, Triphasil-pattern human-equivalent doses, 28-day cycles for 2 years
From the text: Young female adult cynomolgus monkeys were fed a diet for […] that contained either no hormones, the oral combination contraceptive “[…],” the estrogenic component of “[…] estradiol) alone, or the progestin component of “[…]” (levonorgestrel) alone, each administered in the same pattern that occurs in a “[…]” regimen. Doses were scaled on the basis of caloric intake, which is the accepted way to achieve human-equivalent doses. […] This cyclic regimen was repeated every 28 days continuously for 2 years. At the completion of the two years of the study, the animals were sacrificed, and their ovaries were removed and both formalin-fixed and paraffin embedded as well as flash frozen and stored at minus 70 degrees Celsius. Five-micron ovarian sections were mounted on coated slides, and stained with the Apoptag-plus kit (Oncor, Gaithersburg, Md.), which specifically labels the 3' end of free DNA fragments in cells undergoing DNA fragmentation, a characteristic of apoptosis. After staining, cells undergoing apoptosis were easily identified by their dark brown nuclear discoloration. The ovarian surface epithelium was examined histologically to assess ovarian epithelial morphology and to determine the percentage of ovarian cells undergoing apoptosis. To calculate the percentage of ovarian epithelial cells undergoing apoptosis, both the total number of ovarian epithelial cells and the number undergoing apoptosis were counted on each five-micron ovarian section. At each step, the investigators were completely blinded with regard to which treatment group was associated with each ovary.

[9] = test system: TGF beta-3; test: TGF beta-3 immunohistochemical staining in monkey ovarian epithelium; format: in vivo, cynomolgus monkeys; details: Triphasil-pattern doses in diet
From the text: as §1

[10] = test system: M-100 immortalized human ovarian epithelial cells; test: Cell death ELISA (DNA-histone complexes) in M-100 cells; format: cell-based; details: 20 ng/ml, 96 hours, P<0.05
Procedure: Specifically, a spontaneously immortalized cell line, M-100, derived from a normal human ovarian epithelial cell culture was plated in 24 well plates at a concentration of 100,000 cells per well. […] All experiments were performed in triplicate.

Structure (SMILES)	TGF β3 expression as compared to controls (in words) [1]	fewer ovarian and oviductal tumors than controls [4] [%]	Oocyte cytoplasm staining Negative (0-2+), number of monkeys [5]	Oocyte cytoplasm staining Positive (3-4+), number of monkeys [5]	Oocyte cytoplasm staining Positive (3-4+), percent of monkeys [5]	Endothelial staining Negative (0-2+), number of monkeys [6]	Endothelial staining Positive (3-4+), number of monkeys [6]	Endothelial staining Positive (3-4+), percent of monkeys [6]	Granulosa Cell staining Negative (0-2+), number of monkeys [7]	Granulosa Cell staining Positive (3-4+), number of monkeys [7]	Granulosa Cell staining Positive (3-4+), percent of monkeys [7]	Median Percent of Apoptotic Cell Counts [8] [%]	Range Percent of Apoptotic Cell Counts [8]	Epithelial staining Negative (0-2+), number of monkeys [9]	Epithelial staining Positive (3-4+), number of monkeys [9]	Epithelial staining Positive (3-4+), percent of monkeys [9]	also measured
C=C1/C(=C\C=C2/CCC[C@]3(C)[C@@H]([C@H](C)CCCC(C)(C)O)CC[C@@H]23)C[C@@H](O)C[C@@H]1O [1,25-dihydroxyvitamin D3]	significant increase in TGF β3 expression	–	–	–	–	–	–	–	–	–	–	–	–	–	–	–	half-life [2]: 6 to 8 h; increase in apoptosis as compared with the controls [3]: 300%
CC(=O)O[C@]1(C(C)=O)CC[C@H]2[C@@H]3C[C@H](C)C4=CC(=O)CC[C@]4(C)[C@H]3CC[C@@]21C [provera, medroxyprogesterone acetate]	–	35	–	–	–	–	–	–	–	–	–	–	–	–	–	–	–
C#C[C@]1(O)CC[C@H]2[C@@H]3CCC4=CC(=O)CC[C@@H]4[C@H]3CC[C@@]21CC [Levonorgestrel, levonorgestrel]	–	35	3	14	(82%)	1	16	(94%)	16	1	(6%)	24.9	3.5-61.8%	0	17	(100%)	increase in apoptosis as compared to controls [10]: 100%
C#C[C@]1(O)CC[C@H]2[C@@H]3CCc4cc(O)ccc4[C@H]3CC[C@@]21C [Ethinyl Estradiol (EE), ethinyl estradiol]	–	–	4	17	(81%)	21	5	(23%)	13	8	(38%)	1.8	0.1-28.6%	19	2	(10%)	Median Percent of Apoptotic Cell Counts ([8]; listed as Ethinyl-estradiol-only): 1.8%
C=C1CC[C@H](O)C/C1=C/C=C1\CCC[C@]2(C)[C@@H]([C@H](C)CCCC(C)(C)O)CC[C@@H]12 [25-hydroxyvitamin D3]	–	–	–	–	–	–	–	–	–	–	–	–	–	–	–	–	biological half-life (in words) [2]: several weeks
C=C1/C(=C\C=C2/CCC[C@]3(C)[C@@H]([C@H](C)/C=C/C=C/C(O)(CC)CC)CC[C@@H]23)C[C@@H](O)C[C@@H]1O [E1089]	significant increase in TGF β3 expression	–	–	–	–	–	–	–	–	–	–	–	–	–	–	–	–
